Laboratory results reported in patent US6803374B2, “Compounds useful for treating hepatitis C virus” (priority 2001, dated 2004).

Target: T1, HCV NS5B RdRp genotype 1b (Hepatitis C virus genotype 1b, UniProt Q9WMX2)
T1 construct: The protein was expressed with an 18 amino acid C-terminal truncation to enhance the solubility; made in house; host or cells: E. coli BL21(DE3)
Assay: HCV NS5B RdRp enzyme assay
Format: biochemical
Conditions: IC50, HCV RdRp genotype 1b enzyme, C-terminal 18 aa truncated; average of single point IC50 values
Experimental: HCV NS5B RdRp cloning, expression and purification. The cDNA encoding the NS5B protein of HCV, genotype 1b, was cloned into the pET21a expression vector. The protein was expressed with an 18 amino acid C-terminal truncation to enhance the solubility. The E. coli competent cell line BL21(DE3) was used for expression of the protein. Cultures were grown at 37° C. for ˜4 hours until the cultures reached an optical density of 2.0 at 600 nm. The cultures were cooled to 20° C. and induced with 1 mM IPTG. Fresh ampicillin was added to a final concentration of 50 ug/ml and the cells were grown overnight at 20° C.
Cell pellets (3L) were lysed for purification to yield 15-24 mgs of purified NS5B. The lysis buffer consisted of 20 mM Tris-HCl, pH 7.4, 500 mM NaCl, 0.5% triton X-100, 1 mM DTT, 1 mM EDTA, 20% glycerol, 0.5 mg/ml lysozyme, 10 mM MgCl2, 15 ug/ml deoxyribonuclease I, and Complete TM protease inhibitor tablets (Roche). After addition of the lysis buffer, frozen cell pellets were resuspended using a tissue homogenizer. To reduce the viscosity of the sample, aliquots of the lysate were sonicated on ice using a microtip attached to a Branson sonicator. The sonicated lysate was centrifuged at 100,000×g for 1 hr at 4° C. and filtered through a 0.2 μm filter unit (Corning).
The protein was purified using three sequential chromatography steps: Heparin sepharose CL-6B, polyU sepharose 4B, and Hitrap SP sepharose (Pharmacia). The chromatography buffers were identical to the lysis buffer but contained no lysozyme, deoxyribonuclease I, MgCl2 or protease inhibitor and the NaCl concentration of the buffer was adjusted according to the requirements for charging the protein onto the column. Each column was eluted with a NaCl gradient which varied in length from 5-50 column volumes depending on the column type. After the final chromatography step, the resulting purity of the enzyme is >90% based on SDS-PAGE analysis. The enzyme was aliquoted and stored at −80° C.
HCV NS5B RdRp enzyme assay. HCV RdRp genotype 1b assays were run in assay buffer composed of 20 mM Tris-HCl, pH 7.5, 2.5 mM KCl, 5 mM MgCl2, 1 mM DTT, 1.6 U RNAse inhibitor (Promega N2515), in 96 well plates (Falcon 3918). All compounds were serially diluted in DMSO and diluted further in assay buffer such that the final concentration of DMSO in the assay was 2%. Compounds were serially diluted (3-fold each time) for a 7 point inhibition analysis. HCV RdRp genotype 1b enzyme was used at a final concentration of 28 nM. A polyA template was used at 28 nM, and the oligo-dT12-18 primer was used at 840 nM final concentration. Preannealed primer and template were obtained commercially (Amersham 27-787802). ^3H-UTP was used at 0.125 μCi (1 μM total UTP). Reaction was initiated by the addition of enzyme. Reactions were incubated at 30° C. for 45 min, and stopped by adding 30 ul of 20% ice cold TCA. Plates were chilled for 30 minutes and harvested onto Unifilter-96, GF/B plates (Packard, 6005177) using a Packard FilterMate Cell Harvester. The harvest plates were prewashed 3 times, 200 ul/well, with 100 mM NaPPi. Harvested filters were washed 30 times, 200 ul/well, with distilled water followed by ethanol. Filter plates were dried, and 30 ul/well microscint-20 was added. Plates were read on a Packard Top Count NXT.
The IC50 values for compounds were determined using […] different [I], combined with 7 nM enzyme, 800 ng of the template-primer polyC/oligoG12 (1:5 molar ratio), and 0.7 uM of ^3H GTP containing 1 uCi. The observed fractional activity (fa=vi/vo) was used in the equation IC50=[I]/(1/fa-1) to determine a single point IC50 value. Typically, the single point IC50 values derived from [I] that produced fractional activities in the range of 0.1 to 0.8 relative to the uninhibited control were averaged to calculate the IC50 value for each compound.

T1 sequence (Q9WMX2 2420-2992): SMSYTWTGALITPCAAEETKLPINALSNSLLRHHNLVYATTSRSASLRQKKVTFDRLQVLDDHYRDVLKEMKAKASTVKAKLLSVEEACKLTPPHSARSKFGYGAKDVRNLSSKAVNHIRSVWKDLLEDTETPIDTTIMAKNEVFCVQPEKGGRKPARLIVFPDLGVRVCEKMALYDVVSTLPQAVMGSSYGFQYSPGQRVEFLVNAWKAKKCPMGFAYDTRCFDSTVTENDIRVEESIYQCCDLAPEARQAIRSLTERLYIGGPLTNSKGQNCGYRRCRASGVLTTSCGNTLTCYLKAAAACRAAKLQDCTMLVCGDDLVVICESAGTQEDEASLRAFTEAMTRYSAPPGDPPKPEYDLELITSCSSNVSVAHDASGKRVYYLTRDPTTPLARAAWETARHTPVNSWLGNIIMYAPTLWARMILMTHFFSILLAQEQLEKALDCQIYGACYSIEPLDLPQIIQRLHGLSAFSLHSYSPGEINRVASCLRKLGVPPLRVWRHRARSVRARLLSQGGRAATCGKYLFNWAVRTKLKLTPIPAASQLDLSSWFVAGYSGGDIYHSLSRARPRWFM

SMILES	IC50
CC(=O)c1ccc(-c2ccc(C(=O)O)cc2COc2ccc(-c3nc4cc(-c5nnn[nH]5)ccc4n3C3CCCCC3)cc2)s1 [Example 120]	20 nM
O=C(O)c1ccc(-c2ccc3[nH]ccc3c2)c(COc2ccc(-c3nc4cc(-c5nnn[nH]5)ccc4n3C3CCCCC3)cc2)c1 [Example 121]	30 nM
O=Cc1ccoc1-c1ccc(C(=O)O)cc1COc1ccc(-c2nc3cc(-c4nnn[nH]4)ccc3n2C2CCCCC2)cc1 [Example 122]	670 nM
O=C(O)c1ccc(-c2cccc3cccnc23)c(COc2ccc(-c3nc4cc(-c5nnn[nH]5)ccc4n3C3CCCCC3)cc2)c1 [Example 123]	440 nM
O=C(NC(Cc1ccc(O)cc1)C(=O)O)c1ccc(-c2ccsc2)c(COc2ccc(-c3nc4cc(-c5nnn[nH]5)ccc4n3C3CCCCC3)cc2)c1 (centres unmarked) [Example 129]	290 nM
NC(=O)CCNC(=O)c1ccc(-c2ccsc2)c(COc2ccc(-c3nc4cc(-c5nnn[nH]5)ccc4n3C3CCCCC3)cc2)c1 [Example 131]	230 nM
CN1CCN(C(=O)c2ccc(-c3ccsc3)c(COc3ccc(-c4nc5cc(-c6nnn[nH]6)ccc5n4C4CCCCC4)cc3)c2)CC1 [Example 132]	830 nM
O=C(c1ccc(-c2ccsc2)c(COc2ccc(-c3nc4cc(-c5nnn[nH]5)ccc4n3C3CCCCC3)cc2)c1)N1CCOCC1 [Example 133]	1100 nM
O=C(c1ccc(-c2ccsc2)c(COc2ccc(-c3nc4cc(-c5nnn[nH]5)ccc4n3C3CCCCC3)cc2)c1)N1CCCC1 [Example 134]	370 nM
O=C(NCCCO)c1ccc(-c2ccsc2)c(COc2ccc(-c3nc4cc(-c5nnn[nH]5)ccc4n3C3CCCCC3)cc2)c1 [Example 135]	700 nM
CNC(=O)c1ccc(-c2ccsc2)c(COc2ccc(-c3nc4cc(-c5nnn[nH]5)ccc4n3C3CCCCC3)cc2)c1 [Example 136]	220 nM
O=C(c1ccc(-c2ccsc2)c(COc2ccc(-c3nc4cc(-c5nnn[nH]5)ccc4n3C3CCCCC3)cc2)c1)N1CCC(O)CC1 [Example 137]	1300 nM
O=C(c1ccc(-c2ccsc2)c(COc2ccc(-c3nc4cc(-c5nnn[nH]5)ccc4n3C3CCCCC3)cc2)c1)N(CCO)CCO [Example 138]	3000 nM
CC(C)(C)OC(=O)C(Cc1ccc(O)cc1)NC(=O)c1ccc(-c2ccsc2)c(COc2ccc(-c3nc4cc(-c5nnn[nH]5)ccc4n3C3CCCCC3)cc2)c1 (centres unmarked) [Example 140]	2150 nM
CC(C)(C)OC(=O)CNC(=O)c1ccc(-c2ccsc2)c(COc2ccc(-c3nc4cc(-c5nnn[nH]5)ccc4n3C3CCCCC3)cc2)c1 [Example 141]	2800 nM
O=C(O)CNC(=O)c1ccc(-c2ccsc2)c(COc2ccc(-c3nc4cc(-c5nnn[nH]5)ccc4n3C3CCCCC3)cc2)c1 [Example 143]	80 nM
N#Cc1ccc(-c2ccc(C(=O)N3CCC(O)CC3)cc2COc2ccc(-c3nc4cc(-c5nnn[nH]5)ccc4n3C3CCCCC3)cc2)cc1 [Example 149]	220 nM
CN(C)C(=O)c1ccc(-c2ccc3[nH]cc(C(=O)C(F)(F)F)c3c2)c(COc2ccc(-c3nc4cc(-c5nnn[nH]5)ccc4n3C3CCCCC3)cc2)c1 [Example 152]	420 nM
O=C(O)CNC(=O)c1ccc(-c2ccc3[nH]cc(C(=O)C(F)(F)F)c3c2)c(COc2ccc(-c3nc4cc(-c5nnn[nH]5)ccc4n3C3CCCCC3)cc2)c1 [Example 153]	260 nM
NC(=O)CCNC(=O)c1ccc(-c2ccc3[nH]cc(C(=O)C(F)(F)F)c3c2)c(COc2ccc(-c3nc4cc(-c5nnn[nH]5)ccc4n3C3CCCCC3)cc2)c1 [Example 155]	270 nM
